One series relates to eyelashes. Conditions: marketed eye drops for ocular hypertension and glaucoma; cited from earlier work.
Series [1] relates to Male C3H/HeN mice. The settings on record: mouse, in vivo.
Excerpt: (§1) Male C3H/HeN mice of 7 weeks old (seven groups; three mice/group) were used. Following 1-week acclimation, hair on the back of mice was shaved. Two days after the shaving, applications of test compound (13,14-dihydro-15-keto-17-phenyl-18,19,20-trinor-PGF2α isopropyl ester), latanoprost(13,14-dihydro-17-phenyl-18,19,20-trinor-PGF2α isopropyl ester), and vehicle (70 w/w % EtOH) were initiated (Day 1). 0.005%, 0.01% or 0.03% of test compound, 0.005%, 0.01% or 0.03% of latanoprost, or vehicle were applied to the shaved area of the mice at a volume of 0.1 mL once daily for 30 days. The hair growth was scored according to the following criteria.
−: No hair growth observed
(§2) ±: Hair growth observed; less than 10% of shaving area
(§3) +: Hair growth observed; 10-30% of shaving area
(§4) ++: Hair growth observed; 30-50% of shaving area
(§5) +++: Hair growth observed; more than 50% of shaving area
For series [2], the system named is Male C3H/HeN mice. Put plainly: Hair growth scoring after once daily topical application to the shaved back of mice for 30 days. Conditions: for Scores of hair growth: 0.1 mL once daily on shaved area, individual animals.
Excerpt: as §1
−: No hair growth observed
as §2, §3, §4, §5

Where two headings read alike, the source gives them in different places.

Regarding `CC(C)OC(=O)CCC/C=C\C[C@@H]1[C@@H](CC[C@@H](O)CCc2ccccc2)[C@H](O)C[C@@H]1O` [Latanoprost, 13,14-dihydro-17-phenyl-18,19,20-trinor-PGF2α isopropyl ester], in the series with eyelashes, the “Eyelash hair growth (side effect of eye drops)” value (from here on “Eyelash hair growth”) is “induce eyelash hair growth”. In the series on Male C3H/HeN mice [1], the “Effect on the hair growth (summary in words)” value is “remarkable hair growth stimulation” and the “Scores of hair growth” value was “−”.
Consider `CCCCCCCC(=O)CC[C@@H]1[C@@H](C/C=C\CCCC(=O)OC(C)C)[C@@H](O)C[C@H]1O` [Rescula®, 13,14-dihydro-15-keto-20-ethyl-PGF2α isopropylester], for which the “Eyelash hair growth” value with eyelashes is “increases length of eyelashes”.
Take `CC(C)OC(=O)CCC/C=C\C[C@@H]1[C@@H](CCC(=O)CCc2ccccc2)[C@H](O)C[C@@H]1O` [Test compound, 13,14-dihydro-15-keto-17-phenyl-18,19,20-trinor-PGF2α isopropyl ester]: the “Scores of hair growth” value in the series on Male C3H/HeN mice [2] (0.005%, 19 days after first application) is “−”; in the series with Male C3H/HeN mice [2] (0.005%, 22 days after first application), “−”; in the series on Male C3H/HeN mice [2] (0.005%, 23 days after first application), “−”; in the series with Male C3H/HeN mice [2] (0.005%, 24 days after first application) it was “−”; in the series on Male C3H/HeN mice [2] (0.005%, 25 days after first application), “−”; in the series on Male C3H/HeN mice [2] (0.005%, 26 days after first application), “−”. Further, the “Scores of hair growth” value in the series on Male C3H/HeN mice [2] (0.005%, 29 days after first application) is recorded as “−”; in the series on Male C3H/HeN mice [2] (0.005%, 30 days after first application) it was “−”; with Male C3H/HeN mice [2] (0.01%, 19 days after first application), “−”; in the series on Male C3H/HeN mice [2] (0.01%, 22 days after first application) it was “−”; with Male C3H/HeN mice [2] (0.01%, 23 days after first application), “−”; in the series with Male C3H/HeN mice [2] (0.01%, 24 days after first application), “−”. In addition, the “Scores of hair growth” value in the series on Male C3H/HeN mice [2] (0.01%, 25 days after first application) was “−”; in the series on Male C3H/HeN mice [2] (0.01%, 26 days after first application) it was “−”; with Male C3H/HeN mice [2] (0.01%, 29 days after first application), “−”; in the series on Male C3H/HeN mice [2] (0.01%, 30 days after first application) it was “−”; in the series on Male C3H/HeN mice [2] (0.03%, 19 days after first application) it was “−”; with Male C3H/HeN mice [2] (0.03%, 22 days after first application) it was “−”. Moreover, the “Scores of hair growth” value is listed as “−” with Male C3H/HeN mice [2] (0.03%, 23 days after first application); “−” in the series with Male C3H/HeN mice [2] (0.03%, 24 days after first application); “−” in the series with Male C3H/HeN mice [2] (0.03%, 25 days after first application); “−” with Male C3H/HeN mice [2] (0.03%, 26 days after first application); “−” in the series with Male C3H/HeN mice [2] (0.03%, 29 days after first application); “−” in the series with Male C3H/HeN mice [2] (0.03%, 30 days after first application). Also, the “Effect on the hair growth (summary in words)” value with Male C3H/HeN mice [2] (any concentration tested (0.005%, 0.01%, 0.03%), once daily for 30 days) is “no effects on the hair growth”.
For the compound `CCNC(=O)CCC/C=C\C[C@@H]1[C@@H](/C=C/[C@@H](O)CCc2ccccc2)[C@H](O)C[C@@H]1O` [bimatoprost, 17-phenyl 18,19,20-trinor PGF2α-N-ethylamide], in the series with eyelashes, the “Eyelash hair growth” value is on record as “induce eyelash hair growth”.
On to `CC(C)OC(=O)CCC/C=C\C[C@@H]1[C@@H](/C=C/[C@@H](O)COc2cccc(C(F)(F)F)c2)[C@H](O)C[C@@H]1O` [travoprost, 16-(3-trifluoromethylphenoxy)-17,18,19,20-tetranor PGF2α isopropyl ester], for which the “Eyelash hair growth” value in the series on eyelashes was “induce eyelash hair growth”.

These data come from patent US20040225014A1, “Method for treating ocular hypertension and glaucoma” (SUCAMPO AG, priority 2003, published 2004).
